Measurements as given in PMC10160475, “Biological evaluation and in silico studies of novel compounds as potent TAAR1 agonists that could be used in schizophrenia treatment” (Frontiers in Pharmacology, 2023).

Key:
human TAAR1 = target: T1, human TAAR1 (Homo sapiens, UniProt Q96RJ0); test: cAMP assay, functional agonist activity at human TAAR1; assay type: cell-based
T1 construct: expressed in transfected cells; host or cells: cAMP Hunter CHO-K1 AGTRL1 Gi cells
T1 sequence (Q96RJ0 1-339): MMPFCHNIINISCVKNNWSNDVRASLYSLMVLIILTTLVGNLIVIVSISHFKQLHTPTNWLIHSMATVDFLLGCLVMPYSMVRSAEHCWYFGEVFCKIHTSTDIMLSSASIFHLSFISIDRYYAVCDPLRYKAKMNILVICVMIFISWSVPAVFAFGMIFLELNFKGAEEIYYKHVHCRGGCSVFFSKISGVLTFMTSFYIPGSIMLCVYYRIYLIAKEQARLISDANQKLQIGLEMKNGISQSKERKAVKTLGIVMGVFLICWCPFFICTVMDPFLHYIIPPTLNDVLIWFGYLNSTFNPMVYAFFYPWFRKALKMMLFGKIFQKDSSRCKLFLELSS
Experimental: Cells were seeded in a total volume of 20 µL into white-walled, 384-well microplates, followed by incubation at 37°C for the appropriate time before testing. Different concentrations of compounds were added to cells, and incubation was undertaken at 37°C for 10 min, with p-tyramine used as the MAX control. cAMP modulation was determined using the DiscoverX HitHunter cAMP XS + assay. Percentage activity was calculated using the following equation: Activity %=mean RLUtest sample – mean RLUvehicle control/mean RLUMAX control – mean RLUvehicle control×100%.

[1] = tested on: MK801-induced schizophrenia-like behavior; test: MK801-induced schizophrenia-like behavior (open field, distance traveled); assay type: in vivo, C57BI/6J mice
Experimental: Ninety-nine male C57BI/6J mice were divided randomly into 11 groups. Mice were placed in a room 1 h before testing. They were administered (p.o.) vehicle (0.1 ml/10 g), 50A (0.3, 1, 3, and 10 mg/kg; 0.1 ml/10 g), or 50B (0.3, 1, 3, and 10 mg/kg; 0.1 ml/10 g). […] Then, mice were administered (i.p.) MK801 (0.8 mg/kg dissolved in physiologic saline; 0.1 ml/10 g). After 30 min, the distance that mice traveled was measured.
Forty-six male C57BI/6J mice were divided randomly into four groups. The CN group contained four mice. […] The administration method described previously was employed.

catalepsy = test: Catalepsy assay (bar test); assay type: in vivo, C57BI/6J mice; conditions: 100 mg/kg p.o., 30 and 90 min after administration
Experimental: Twenty-four male C57BI/6J mice were divided randomly into four groups. Mice were placed in a room 1 h before testing. […] The front paws of mice were placed on a horizontal metal bar raised 2 inches above a Plexiglas™ platform 30 min and 90 min after administration. The time the front paws of mice were placed on the platform was recorded at ≤30 s per trial. Each test was repeated three times.

For `c1csc([C@H]2CNCCO2)c1` [Compound 50A], the EC50 (human TAAR1) was 6.25 µM, the Emax (human TAAR1; cAMP modulation, p-tyramine as MAX control, read-out: TAAR1 Agonist % Emax) was 64% and the “Inhibition of MK801-induced schizophrenia-like behavior (effective doses)” value ([1]; mice, single oral dose 0.3, 1, 3 and 10 mg/kg, MK801 0.8 mg/kg i.p.) was “only at 1 mg/kg”. For the same compound, the “Distance moved by mice in the presence or absence of MK801” value ([1]; single oral dose 0.3, 1, 3 and 10 mg/kg) was “significantly reduced the distance moved by mice” and the “Time mice spent holding bars (catalepsy)” value (catalepsy) was “did not increase this time”.

For `O=C1CCc2ccc(OCCCCN3CCN(c4cccc(Cl)c4Cl)CC3)cc2N1` [aripiprazole, reference compound], the MK801-induced schizophrenia-like behavior ([1]; mice, aripiprazole 5 mg/kg p.o., MK801 0.8 mg/kg i.p.) was “significantly reduced”.

With `Cc1nc2n(c(=O)c1CCN1CCC(c3noc4cc(F)ccc34)CC1)CCCC2` [risperidone, reference compound] the MK801-induced schizophrenia-like behavior ([1]; mice, risperidone 0.1 mg/kg p.o., MK801 0.8 mg/kg i.p.) was “significantly reduced”.
